US5316919A, “Method of producing 2 KD to 10 KD peptides having no L-methionine residue” (priority 1992, dated 1994)
Where no end group is shown, it is not given here.

Test system: male ICR mice
Test: Effects on the blood pressure (caudal vein blood pressure, noninvasive sphygmomanometer) after intravenous injection
Assay type: in vivo
Details: 40 μg/kg by injection into the caudal vein, male ICR mice of 5 weeks of age
Experimental: Two of the compounds of the invention were each administered to male ICR mice of 5 weeks of age by injection into the caudal vein at a dose of 40 μg/kg. […]
In addition, the activity was of long duration. The peptides of the invention have therapeutic utility.

Substance	caudal vein blood pressure relative to physiological saline taken as 100% (5 min after administration) [%]	caudal vein blood pressure relative to physiological saline taken as 100% (10 min after administration) [%]	caudal vein blood pressure relative to physiological saline taken as 100% (15 min after administration) [%]	caudal vein blood pressure relative to physiological saline taken as 100% (20 min after administration) [%]
H-HSDAVFTDNYTRLRKQLAVKKYLNSILNGP-OH [Peptide of Reference Example 3, H-His-Ser-Asp-Ala-Val-Phe-Thr-Asp-Asn-Tyr-Thr-Arg-Leu-Arg-Lys-Gln-Leu-Ala- Val-Lys-Lys-Tyr-Leu-Asn-Ser-Ile-Leu-Asn-Gly-Pro-OH]	58.9	74.1	94.3	105.5
vasoactive intestinal polypeptide (HSDAVFTDNYTRLRKQMAVKKYLNSILN; ends and bridges not checked; UniProt P01282 125-152, looked up) [Naturally occurring VIP, reference compound]	83.3	97.2	95.9	102.8
H-HSDAVFTDNYTRLRKQLAVKKYLNSILNGPEA-OH [Peptide of Reference Example 1, H-His-Ser-Asp-Ala-Val-Phe-Thr-Asp-Asn-Tyr-Thr-Arg-Leu-Arg-Lys-Gln-Leu-Ala- Val-Lys-Lys-Tyr-Leu-Asn-Ser-Ile-Leu-Asn-Gly-Pro-Glu-Ala-OH]	71.1	66.4	74.9	77.9
